Data reported in patent US7148405B2, “Enzymes responsible for the metabolism of cis-zeatin” (State of Oregon Acting by and through the State Board of …, priority 2000, dated 2006).

These molecules were tested on β-glucosidase (assay: not given). Conditions: reaction product incubated with β-glucosidase for 4 hours.
Experimental: (§1) For FIG. 2B, 200 μL of supernatant obtained from cell culture was incubated with approximately 1 nmol of labeled zeatin and UDPG for 2 hours. For FIG. 2C, Approximately 0.4 nmole of reaction product obtained from reactions similar to FIG. 2B was incubated with β-glucosidase for 4 hours to reconvert the product to zeatin.

Molecule	re-conversion to cis-zeatin by β-glucosidase
cis-zeatin O-glucoside	re-conversion of the reaction product to cis-zeatin by β-glucosidase

Each molecule was assayed against T1, cis-zeatin O-glucosyltransferase (cis-ZOG1) (Zea mays, UniProt Q93XP7) (assay: Enzyme assay of recombinant cis-ZOG1 with cytokinin substrates and UDPG, products analysed by HPLC). Conditions: recombinant protein, UDPG as glycosyl donor, HPLC analysis.
T1 construct: His7 (seven histidine residues, from the vector); made in house; host or cells: E. coli XL1 Blue
T1 sequence (Q93XP7 1-467): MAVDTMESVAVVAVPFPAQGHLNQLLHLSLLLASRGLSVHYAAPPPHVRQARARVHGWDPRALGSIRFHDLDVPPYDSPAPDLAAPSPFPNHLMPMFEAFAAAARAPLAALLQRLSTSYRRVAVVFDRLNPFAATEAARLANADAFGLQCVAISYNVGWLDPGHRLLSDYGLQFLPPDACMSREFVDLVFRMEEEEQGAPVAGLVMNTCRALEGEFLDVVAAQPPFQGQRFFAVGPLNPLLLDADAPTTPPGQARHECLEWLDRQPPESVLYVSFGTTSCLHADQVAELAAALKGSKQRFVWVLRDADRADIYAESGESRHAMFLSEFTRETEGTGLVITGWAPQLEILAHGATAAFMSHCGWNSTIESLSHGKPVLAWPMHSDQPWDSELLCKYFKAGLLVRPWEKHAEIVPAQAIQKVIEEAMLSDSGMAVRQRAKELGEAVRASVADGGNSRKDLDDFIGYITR
Type: biochemical
Experimental: as §1
3. Isolation of Recombinant Proteins. To obtain recombinant proteins, the ORF of the selected cDNA was amplified by PCR using primers (SEQ ID NOS: 9 and 10) that generated products having an NcoI site at the 5′ and a XbaI site at the 3′ terminus. The PCR products were digested with NcoI and XbaI restriction enzymes and ligated into a p Trc 99A expression vector (Pharmacia) modified to contain seven histidine residues (CAT or CAC), and transformed into the XL1 Blue cell line. Colonies were selected on AMP-LB plates. […] After 4 hours cells were collected and frozen at −80 C overnight. Cells were resuspended in 0.5 mL of 0.2 M Tris pH 7.5 containing 1 mg/mL of lysozyme. Samples were incubated on ice for 30 minutes, frozen for 10 minutes at −80 C, thawed in cold water, and then DNAase (1 μg/10 μl supernatant) was added. After 10 minutes at room temperature, the samples were sonicated with four 15-second bursts to release proteins from cells. Soluble proteins were collected after centrifugation and used for enzyme assays.
4. Enzyme assays and analysis of reaction products. Enzyme activity was determined as reported previously (Dixon et al., Plant Physiol. 90:1316–1321, 1989). Briefly, a specified amount of recombinant protein, ^14C-labeled cis-zeatin (specific activity of 24 mCi/mmol), and a glycosyl donor (4 mM of UDPG) were incubated in MgCl2 (0.07 M) in 0.17 M Tris, pH 8.0. Reaction products were then analyzed by HPLC (Dixon et al., Plant Physiol. 90:1316–1321, 1989).

Molecule	use as substrate by the recombinant enzyme (O-glucosylation)
C/C(=C/CNc1ncnc2nc[nH]c12)CO [cis-zeatin]	formation of O-glucosyl-cis-zeatin from cis-zeatin
CC(CO)CCNc1ncnc2nc[nH]c12 (stereo not drawn) [dihydrozeatin]	does not use

Now from value to molecule:

use as substrate by the recombinant enzyme (O-glucosylation)	Molecule
does not use	C/C(=C\CNc1ncnc2c1ncn2[C@@H]1O[C@H](CO)[C@@H](O)[C@H]1O)CO (relative stereo) [trans-ribosylzeatin]
does not use	CC(CO)CCNc1ncnc2c1ncn2[C@@H]1O[C@H](CO)[C@@H](O)[C@H]1O (stereo partly drawn) [ribosyldihydrozeatin]
does not use	C/C(=C\CNc1ncnc2[nH]cnc12)CO [trans-zeatin]
